Reference: patent publication US4622217A, “I-4-amino-3-iodobenzylguanidine as imaging and therapeutic agent” (The Regents of the University of Michigan, priority 1984, dated 1986)

How the values were obtained:
adrenergic tissues = assay: Accumulation in adrenergic tissues; assay type: in vivo; settings: localizes in adrenergic neurons of the heart and chromaffin granules of the adrenal medulla
[1] = Biological tissue distribution in rats after intravenous injection; assay type: in vivo, rat (Female Sprague-Dawley); settings: 90 min, i.v. 25 μCi
Experimental: (§1) Biological tissue distribution studies were performed in rats, dogs, and monkeys injected intravenously with 25 μCi, 100 μCi and 100 μCi, respectively, of I-125 4-amino-3-iodobenzylguanidine in an average volume of 0.2 ml, 2 ml, and 1 ml, respectively. Representative samples of tissues were counted in an autogamma counter with corrections made for radioactive decay, background, and counter efficiency. To normalize for differences in animal weights, tissue concentrations are expressed as percent kilogram dose per gram.

[2] = Biological tissue distribution in dogs after intravenous injection; assay type: in vivo, dog (Female Mongrel); settings: i.v. 100 μCi
Experimental: as §1

[3] = Biological tissue distribution in monkeys after intravenous injection; assay type: in vivo, monkey; settings: 3 hours, i.v. 100 μCi
Experimental: as §1

[4] = Radio-decomposition on storage in buffer; assay type: physicochemical; settings: up to 14 days, pH 4.8 sodium acetate buffer (0.005M), 1% (v/v) benzyl alcohol, 4° C., dark
[5] = system: adrenergic nerves of the heart; assay: Selectivity for the adrenergic nerves of the heart; settings: in vivo

N=C(N)NCc1ccc(N)c(I)c1 [4-amino-3-iodobenzylguanidine]
accumulation in adrenergic tissues (adrenergic tissues): accumulated in adrenergic tissues in a manner similar to norepinephrine and guanethidine

N=C(N)NCc1ccc(N)c([125I])c1 [I-125 4-amino-3-iodobenzylguanidine]
tissue concentration (Mean + S.E.M.) ([1]; Blood): 0.08 ± .01 % Kg Dose/g | tissue concentration (Mean + S.E.M.) ([1]; Left Atrium): 0.55 ± .06 % Kg Dose/g | tissue concentration (Mean + S.E.M.) ([1]; Left Ventricle): 0.46 ± .05 % Kg Dose/g | tissue concentration (Mean + S.E.M.) ([1]; Liver): 0.09 ± .01 % Kg Dose/g | tissue concentration (Mean + S.E.M.) ([1]; Right Atrium): 0.66 ± .05 % Kg Dose/g | tissue concentration (Mean + S.E.M.) ([1]; Right Ventricle): 0.70 ± .02 % Kg Dose/g | tissue concentration (Mean + S.E.M.) ([1]; Spleen): 0.35 ± .01 % Kg Dose/g | tissue concentration (Mean + S.E.M.) ([2]; 30 min, Adrenal Cortex): 0.62 ± 0.16 % kg dose/g | tissue concentration (Mean + S.E.M.) ([2]; 30 min, Adrenal Medulla): 8.8 ± 2.8 % kg dose/g | tissue concentration (Mean + S.E.M.) ([2]; 30 min, Blood): 0.03 % kg dose/g | tissue concentration (Mean + S.E.M.) ([2]; 30 min, Heart (Left Ventricle)): 0.49 ± 0.05 % kg dose/g | tissue concentration (Mean + S.E.M.) ([2]; 30 min, Liver): 0.36 ± 0.02 % kg dose/g | tissue concentration (Mean + S.E.M.) ([2]; 30 min, Lung): 0.88 ± 0.61 % kg dose/g | tissue concentration (Mean + S.E.M.) ([2]; 30 min, Muscle): 0.05 ± 0.02 % kg dose/g | tissue concentration (Mean + S.E.M.) ([2]; 30 min, Thyroid): 1.02 ± 0.06 % kg dose/g | tissue concentration (Mean + S.E.M.) ([2]; 2 hours, Adrenal Cortex): 0.51 ± 0.15 % kg dose/g | tissue concentration (Mean + S.E.M.) ([2]; 2 hours, Adrenal Medulla): 10.4 ± 0.8 % kg dose/g | tissue concentration (Mean + S.E.M.) ([2]; 2 hours, Blood): 0.03 % kg dose/g | tissue concentration (Mean + S.E.M.) ([2]; 2 hours, Heart (Left Ventricle)): 0.52 ± 0.02 % kg dose/g | tissue concentration (Mean + S.E.M.) ([2]; 2 hours, Liver): 0.2 ± 0.02 % kg dose/g | tissue concentration (Mean + S.E.M.) ([2]; 2 hours, Lung): 1.26 ± 0.2 % kg dose/g | tissue concentration (Mean + S.E.M.) ([2]; 2 hours, Muscle): 0.04 ± 0.01 % kg dose/g | tissue concentration (Mean + S.E.M.) ([2]; 2 hours, Thyroid): 0.85 ± 0.11 % kg dose/g | tissue concentration (Mean + S.E.M.) ([2]; 72 hours, Adrenal Cortex): 0.13 ± 0.06 % kg dose/g | tissue concentration (Mean + S.E.M.) ([2]; 72 hours, Adrenal Medulla): 18.3 ± 1.8 % kg dose/g | tissue concentration (Mean + S.E.M.) ([2]; 72 hours, Blood): 0.02 % kg dose/g | tissue concentration (Mean + S.E.M.) ([2]; 72 hours, Heart (Left Ventricle)): 0.06 ± 0.01 % kg dose/g | tissue concentration (Mean + S.E.M.) ([2]; 72 hours, Liver): 0.05 % kg dose/g | tissue concentration (Mean + S.E.M.) ([2]; 72 hours, Lung): 0.09 ± 0.01 % kg dose/g | tissue concentration (Mean + S.E.M.) ([2]; 72 hours, Muscle): 0.01 % kg dose/g | tissue concentration (Mean + S.E.M.) ([2]; 72 hours, Thyroid): 14.6 ± 2.4 % kg dose/g | tissue concentration (Mean + S.E.M.) ([3]; Adrenal Cortex): 0.60 ± .04 % Kg Dose/g | tissue concentration (Mean + S.E.M.) ([3]; Adrenal Modullae): 1.98 ± .14 % Kg Dose/g | tissue concentration (Mean + S.E.M.) ([3]; Blood): 0.03 ± .01 % Kg Dose/g | tissue concentration (Mean + S.E.M.) ([3]; Heart (Left Ventricle)): 0.85 ± .11 % Kg Dose/g | tissue concentration (Mean + S.E.M.) ([3]; Liver): 0.17 ± .04 % Kg Dose/g | tissue concentration (Mean + S.E.M.) ([3]; Lung): 0.99 ± .53 % Kg Dose/g | tissue concentration (Mean + S.E.M.) ([3]; Muscle): 0.03 ± .55 % Kg Dose/g | tissue concentration (Mean + S.E.M.) ([3]; Thyroid): 1.07 ± .55 % Kg Dose/g

N=C(N)NCc1ccc(N)c([131I])c1 [I-131-labeled compound, ^131 I-4-Amino-3-Iodobenzylguanidine]
degraded at 336 h [4]: < 4%

N=C(N)NCc1ccc(N)c(I)c1 [radioiodinated compound, radioiodinated 4-amino-3-iodobenzylguanidine]
selectivity for the adrenergic nerves of the heart [5]: high degree of selectivity for the adrenergic nerves of the heart
